From patent US20220332799A1, “HERV INHIBITORS FOR USE IN TREATING TAUOPATHIES” (Deutsches Zentrum Für Neurodegenerative Erkrankungen E.V. …, priority 2019, published 2022) come the findings set out here.

Entries after “also recorded” stand apart in the source; their conditions may differ.

Test [1] relates to HEK Tau-FRsol cells. The experiment in a line: Tau-FR aggregate induction by coculture with MCF-7 Tau-GFPAD donor cells. The test is classed as cell-based, human. The conditions noted are these: donors pretreated with 2 μM for 4 d; coculture 3 d without drug; vs DMSO. The procedure: FIG. 14: Human endogenous retroviruses contribute to the spreading of protein aggregates. • a. Experimental workflow. A human breast cancer cell line MCF-7 (4) was engineered to stably express Tau-GFP and induced to propagate Tau aggregates by exposure to Alzheimer's disease brain homogenate (AD). A single cell clone was subsequently isolated and used in the experiment (MCF-7 Tau-GFPAD). This donor clone was treated with 2 μM 5-Aza-2-deoxycytidine (Aza) for 4 d to de-repress HERV expression. Pretreated donor cells were cocultured with HEK-Tau-FRsol cells. • b. […] Statistics: Unpaired Student's t-test (n=3). • c. Quantitative analysis of recipient cells with induced Tau-FR aggregates following coculture with DMSO-treated or Aza-treated donor cells. […] Recipients were subsequently cocultured with transduced donors that had been passaged at least 5 times post transduction. • e. shRNA-mediated downregulation of Syncytin-1 mRNA in MCF-7 Tau-GFPAD cells assessed by quantitative real-time PCR. […] Quantitative analysis of recipient cells with induced Tau-FR aggregates following coculture with donors with decreased HERV-W Syncytin-1 expression. […]
To inhibit methyltransferase, MCF-7 Tau-GFPAD cells were treated with 2 μM Aza or DMSO for 4 d. […] Afterwards, the total numbers of viable cells and the viability upon drug treatments were determined using the Vi-VELLTMXR Cell Viability Analyzer (Beckman Coulter). […]

Test [2] relates to HERV-W Env (Syncytin-1) mRNA. The experiment in a line: Quantitative real-time PCR of Syncytin-1 in MCF-7 cells. The conditions noted are these: MCF-7 Tau-GFPAD cells, 2 μM for 4 d; vs DMSO. The test is classed as cell-based, human. How it is done: FIG. 14: Human endogenous retroviruses contribute to the spreading of protein aggregates. • a. Experimental workflow. A human breast cancer cell line MCF-7 (4) was engineered to stably express Tau-GFP and induced to propagate Tau aggregates by exposure to Alzheimer's disease brain homogenate (AD). A single cell clone was subsequently isolated and used in the experiment (MCF-7 Tau-GFPAD). This donor clone was treated with 2 μM 5-Aza-2-deoxycytidine (Aza) for 4 d to de-repress HERV expression. Pretreated donor cells were cocultured with HEK-Tau-FRsol cells. • b. […] Statistics: Unpaired Student's t-test (n=3). • c. Quantitative analysis of recipient cells with induced Tau-FR aggregates following coculture with DMSO-treated or Aza-treated donor cells. Statistics: Unpaired Student's t-test (n=6). • d. […] Recipients were subsequently cocultured with transduced donors that had been passaged at least 5 times post transduction. • e. shRNA-mediated downregulation of Syncytin-1 mRNA in MCF-7 Tau-GFPAD cells assessed by quantitative real-time PCR. […] Quantitative analysis of recipient cells with induced Tau-FR aggregates following coculture with donors with decreased HERV-W Syncytin-1 expression. […]
Total RNAs from cell pellets were isolated using the RNeasy Mini Kit or RNeasy Lipid Tissue Mini Kit (Qiagen). RNA concentration and quality were determined with Agilent 2100 Bioanalyzer System. […]
(In general: In qPCR the cycle at which signal appears reflects the starting amount.)

For `Nc1ncn([C@H]2C[C@H](O)[C@@H](CO)O2)c(=O)n1` [Decitabine, 5-aza-2′-deoxycytidine], in test [1], the “recipient cells with induced Tau-FR aggregates in cocultures” value is “increased recipient cells with aggregates in cocultures”. In test [2], the “Syncytin-1 mRNA levels” value is “enhanced Syncytin-1 mRNA levels; also recorded: increased HERV-W Env (Syncytin-1) expression”.
